Laboratory results from ChEMBL document CHEMBL1201862, “PubChem BioAssay data set” (2004).
Active and inactive are the calls of the source.

Columns and labels:
[1] = target: T1, DNA repair protein RAD52 homolog (Homo sapiens, UniProt P43351); format: functional, biochemical
T1 sequence (P43351 whole entry): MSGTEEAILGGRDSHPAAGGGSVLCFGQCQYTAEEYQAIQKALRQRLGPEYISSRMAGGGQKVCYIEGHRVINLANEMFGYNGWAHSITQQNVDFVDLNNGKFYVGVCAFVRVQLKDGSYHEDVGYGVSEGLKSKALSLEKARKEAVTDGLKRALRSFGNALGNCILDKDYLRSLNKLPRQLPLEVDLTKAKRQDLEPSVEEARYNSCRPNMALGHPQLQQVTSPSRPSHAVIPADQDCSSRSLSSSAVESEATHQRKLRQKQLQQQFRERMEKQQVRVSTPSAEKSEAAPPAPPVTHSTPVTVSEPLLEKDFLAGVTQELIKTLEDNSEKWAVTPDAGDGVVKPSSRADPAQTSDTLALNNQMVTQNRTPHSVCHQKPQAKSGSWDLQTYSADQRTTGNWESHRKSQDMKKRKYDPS

[2] = target: T2, Carboxy-terminal domain RNA polymerase II polypeptide A small phosphatase 1 (Homo sapiens, UniProt Q9GZU7); test: inhibitors of CTDSP1, concentration-response testing, biochemical assay, absorbance-based, actives from ultra-high-throughput screening (AID 540297); format: functional
T2 sequence (Q9GZU7 whole entry): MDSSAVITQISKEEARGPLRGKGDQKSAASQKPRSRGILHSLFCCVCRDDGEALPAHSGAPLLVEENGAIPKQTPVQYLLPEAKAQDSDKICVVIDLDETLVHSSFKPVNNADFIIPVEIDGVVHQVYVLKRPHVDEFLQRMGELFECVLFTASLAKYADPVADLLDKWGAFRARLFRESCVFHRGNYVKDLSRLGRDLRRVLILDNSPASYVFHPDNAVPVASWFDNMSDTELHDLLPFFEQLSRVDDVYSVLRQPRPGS

[3] = target: DNA (cytosine-5)-methyltransferase 1 (Homo sapiens, UniProt P26358); test: DNMT1 methyltransferase inhibitors, confirmation, biochemical, fluorescent molecular beacon (AID 602386); format: functional
Chain of DNA (cytosine-5)-methyltransferase 1 (P26358 whole entry): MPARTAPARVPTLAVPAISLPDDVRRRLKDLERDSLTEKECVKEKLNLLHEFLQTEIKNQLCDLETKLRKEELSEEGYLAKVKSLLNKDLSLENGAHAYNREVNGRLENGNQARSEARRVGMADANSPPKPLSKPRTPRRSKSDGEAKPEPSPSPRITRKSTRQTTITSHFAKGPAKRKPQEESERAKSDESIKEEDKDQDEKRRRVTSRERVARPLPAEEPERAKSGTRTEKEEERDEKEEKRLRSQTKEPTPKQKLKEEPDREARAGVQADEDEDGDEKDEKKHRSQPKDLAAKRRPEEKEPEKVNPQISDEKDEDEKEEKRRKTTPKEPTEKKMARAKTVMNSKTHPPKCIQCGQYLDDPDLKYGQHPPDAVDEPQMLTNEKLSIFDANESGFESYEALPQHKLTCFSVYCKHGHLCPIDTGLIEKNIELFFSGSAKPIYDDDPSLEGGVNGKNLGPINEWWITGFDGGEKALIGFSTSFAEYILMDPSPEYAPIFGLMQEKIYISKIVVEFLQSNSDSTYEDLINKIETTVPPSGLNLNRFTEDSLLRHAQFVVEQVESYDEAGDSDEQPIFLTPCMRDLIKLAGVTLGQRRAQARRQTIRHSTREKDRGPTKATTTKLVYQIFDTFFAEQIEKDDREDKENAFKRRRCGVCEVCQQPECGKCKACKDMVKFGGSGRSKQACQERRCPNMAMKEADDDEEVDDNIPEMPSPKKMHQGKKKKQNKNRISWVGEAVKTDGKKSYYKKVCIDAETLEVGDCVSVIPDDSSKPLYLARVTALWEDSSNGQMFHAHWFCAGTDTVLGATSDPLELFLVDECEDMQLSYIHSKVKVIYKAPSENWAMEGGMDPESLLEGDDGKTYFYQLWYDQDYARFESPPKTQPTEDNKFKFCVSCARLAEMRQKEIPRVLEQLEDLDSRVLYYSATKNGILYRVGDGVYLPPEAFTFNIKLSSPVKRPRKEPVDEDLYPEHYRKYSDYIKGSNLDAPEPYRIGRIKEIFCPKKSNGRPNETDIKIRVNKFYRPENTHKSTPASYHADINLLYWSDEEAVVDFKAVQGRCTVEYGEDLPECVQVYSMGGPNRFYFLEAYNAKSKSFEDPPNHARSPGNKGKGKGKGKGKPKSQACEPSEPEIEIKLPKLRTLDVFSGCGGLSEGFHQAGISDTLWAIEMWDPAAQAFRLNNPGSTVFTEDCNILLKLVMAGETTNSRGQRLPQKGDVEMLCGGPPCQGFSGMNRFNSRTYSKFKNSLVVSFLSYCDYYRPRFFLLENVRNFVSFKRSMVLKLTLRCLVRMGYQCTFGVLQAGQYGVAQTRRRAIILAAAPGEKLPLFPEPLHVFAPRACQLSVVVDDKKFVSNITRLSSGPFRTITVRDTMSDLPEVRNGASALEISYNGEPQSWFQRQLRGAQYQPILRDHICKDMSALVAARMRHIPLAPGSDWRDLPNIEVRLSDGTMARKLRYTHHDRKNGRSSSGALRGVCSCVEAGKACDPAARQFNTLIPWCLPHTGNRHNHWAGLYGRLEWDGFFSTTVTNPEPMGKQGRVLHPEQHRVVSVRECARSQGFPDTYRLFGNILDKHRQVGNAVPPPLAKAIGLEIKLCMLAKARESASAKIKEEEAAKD

[4] = cells; format: functional, cell-based
[5] = target: T3, Nuclear receptor subfamily 0 group B member 1 (Homo sapiens, UniProt P51843); format: functional, cell-based;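 note: HEK293T cells transfected with SF-1 and DAX-1 plus StAR promoter luciferase reporter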
T3 sequence (P51843 whole entry): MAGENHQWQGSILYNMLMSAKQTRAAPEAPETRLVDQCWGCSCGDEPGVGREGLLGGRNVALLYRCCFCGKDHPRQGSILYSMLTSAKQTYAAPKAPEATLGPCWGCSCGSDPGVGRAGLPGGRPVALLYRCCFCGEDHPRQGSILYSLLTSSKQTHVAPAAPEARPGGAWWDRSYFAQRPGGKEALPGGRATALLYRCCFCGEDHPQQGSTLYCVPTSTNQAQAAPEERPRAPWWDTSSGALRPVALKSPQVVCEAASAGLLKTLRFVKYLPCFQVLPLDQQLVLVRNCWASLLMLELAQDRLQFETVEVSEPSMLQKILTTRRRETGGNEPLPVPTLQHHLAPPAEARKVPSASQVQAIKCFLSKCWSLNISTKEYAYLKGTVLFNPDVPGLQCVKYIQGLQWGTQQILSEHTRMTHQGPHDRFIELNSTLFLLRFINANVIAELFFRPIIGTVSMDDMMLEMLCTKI

[6] = Luminescence Cell-Based Dose Response HTS to Identify Inhibitors of 5'UTR Stem-Loop Driven Prion Protein mRNA Translation in H4 Neuroglioblastoma Cells. [Related pubchem assays: 1827 (Project Summary), 1813 (Primary HTS)]; format: functional
[7] = inhibitors of firefly luciferase expression or activity, dose response, H4 neuroglioma cells, luminescence (AID 1990); format: functional, cell-based
[8] = inhibitors of SNCA 5'UTR-driven reporter translation, confirmation, H4 neuroglioma cells, luminescence (AID 1988); format: functional, cell-based
[9] = target: FAD-linked sulfhydryl oxidase ALR (Homo sapiens, UniProt P55789); test: inhibitors of human ALR sulfhydryl oxidase, dose response, biochemical, H2O2 detection, luminescence, cherry-pick (AID 493248)
Chain of FAD-linked sulfhydryl oxidase ALR (P55789 whole entry): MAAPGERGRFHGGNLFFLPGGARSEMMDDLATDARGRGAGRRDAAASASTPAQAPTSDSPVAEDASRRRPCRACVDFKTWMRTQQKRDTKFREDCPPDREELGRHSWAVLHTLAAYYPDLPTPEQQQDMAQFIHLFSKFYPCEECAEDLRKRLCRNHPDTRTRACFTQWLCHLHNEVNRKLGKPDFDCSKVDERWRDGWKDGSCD

[10] = target: Albumin (Bos taurus, UniProt P02769); test: Counterscreen for inhibitors of T-cell receptor (TCR)-CD3 interaction: Fluorescence-based biochemical high throughput dose response assay to identify inhibitors of T-cell receptor (TCR)-CD3 interaction using a TAMRA-labeled BSA probe.; format: functional
Chain of Albumin (P02769 whole entry): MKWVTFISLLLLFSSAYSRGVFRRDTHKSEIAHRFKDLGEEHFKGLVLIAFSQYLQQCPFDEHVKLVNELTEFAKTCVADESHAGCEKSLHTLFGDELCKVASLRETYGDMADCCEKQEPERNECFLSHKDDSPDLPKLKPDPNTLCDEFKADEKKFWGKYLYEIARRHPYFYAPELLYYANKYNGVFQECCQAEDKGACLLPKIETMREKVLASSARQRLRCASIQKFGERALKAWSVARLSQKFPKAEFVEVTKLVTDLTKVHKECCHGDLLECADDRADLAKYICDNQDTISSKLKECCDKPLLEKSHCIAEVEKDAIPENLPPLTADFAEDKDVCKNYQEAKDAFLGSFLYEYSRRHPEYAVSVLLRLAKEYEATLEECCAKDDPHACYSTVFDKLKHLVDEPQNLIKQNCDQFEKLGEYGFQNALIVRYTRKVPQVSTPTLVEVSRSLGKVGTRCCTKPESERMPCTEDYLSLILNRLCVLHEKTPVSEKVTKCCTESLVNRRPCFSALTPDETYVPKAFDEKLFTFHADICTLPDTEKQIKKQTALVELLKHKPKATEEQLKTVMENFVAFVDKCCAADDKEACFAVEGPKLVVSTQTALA

[11] = Counterscreen for activators of the function of SWI/SNF related, matrix associated, actin dependent regulator of chromatin, subfamily a, member 2 (SMARCA2, BRM): Luminescence-based cell-based high throughput dose response assay to identify non-selective compounds using the VP16 reporter assay.; format: functional
[12] = target: SWI/SNF-related matrix-associated actin-dependent regulator of chromatin subfamily A member 2 (Homo sapiens, UniProt P51531); test: Luminescence-based cell-based high throughput dose response assay to identify activators of the function of SWI/SNF related, matrix associated, actin dependent regulator of chromatin, subfamily a, member 2 (SMARCA2, BRM).; format: functional
Chain of SWI/SNF-related matrix-associated actin-dependent regulator of chromatin subfamily A member 2 (P51531 whole entry): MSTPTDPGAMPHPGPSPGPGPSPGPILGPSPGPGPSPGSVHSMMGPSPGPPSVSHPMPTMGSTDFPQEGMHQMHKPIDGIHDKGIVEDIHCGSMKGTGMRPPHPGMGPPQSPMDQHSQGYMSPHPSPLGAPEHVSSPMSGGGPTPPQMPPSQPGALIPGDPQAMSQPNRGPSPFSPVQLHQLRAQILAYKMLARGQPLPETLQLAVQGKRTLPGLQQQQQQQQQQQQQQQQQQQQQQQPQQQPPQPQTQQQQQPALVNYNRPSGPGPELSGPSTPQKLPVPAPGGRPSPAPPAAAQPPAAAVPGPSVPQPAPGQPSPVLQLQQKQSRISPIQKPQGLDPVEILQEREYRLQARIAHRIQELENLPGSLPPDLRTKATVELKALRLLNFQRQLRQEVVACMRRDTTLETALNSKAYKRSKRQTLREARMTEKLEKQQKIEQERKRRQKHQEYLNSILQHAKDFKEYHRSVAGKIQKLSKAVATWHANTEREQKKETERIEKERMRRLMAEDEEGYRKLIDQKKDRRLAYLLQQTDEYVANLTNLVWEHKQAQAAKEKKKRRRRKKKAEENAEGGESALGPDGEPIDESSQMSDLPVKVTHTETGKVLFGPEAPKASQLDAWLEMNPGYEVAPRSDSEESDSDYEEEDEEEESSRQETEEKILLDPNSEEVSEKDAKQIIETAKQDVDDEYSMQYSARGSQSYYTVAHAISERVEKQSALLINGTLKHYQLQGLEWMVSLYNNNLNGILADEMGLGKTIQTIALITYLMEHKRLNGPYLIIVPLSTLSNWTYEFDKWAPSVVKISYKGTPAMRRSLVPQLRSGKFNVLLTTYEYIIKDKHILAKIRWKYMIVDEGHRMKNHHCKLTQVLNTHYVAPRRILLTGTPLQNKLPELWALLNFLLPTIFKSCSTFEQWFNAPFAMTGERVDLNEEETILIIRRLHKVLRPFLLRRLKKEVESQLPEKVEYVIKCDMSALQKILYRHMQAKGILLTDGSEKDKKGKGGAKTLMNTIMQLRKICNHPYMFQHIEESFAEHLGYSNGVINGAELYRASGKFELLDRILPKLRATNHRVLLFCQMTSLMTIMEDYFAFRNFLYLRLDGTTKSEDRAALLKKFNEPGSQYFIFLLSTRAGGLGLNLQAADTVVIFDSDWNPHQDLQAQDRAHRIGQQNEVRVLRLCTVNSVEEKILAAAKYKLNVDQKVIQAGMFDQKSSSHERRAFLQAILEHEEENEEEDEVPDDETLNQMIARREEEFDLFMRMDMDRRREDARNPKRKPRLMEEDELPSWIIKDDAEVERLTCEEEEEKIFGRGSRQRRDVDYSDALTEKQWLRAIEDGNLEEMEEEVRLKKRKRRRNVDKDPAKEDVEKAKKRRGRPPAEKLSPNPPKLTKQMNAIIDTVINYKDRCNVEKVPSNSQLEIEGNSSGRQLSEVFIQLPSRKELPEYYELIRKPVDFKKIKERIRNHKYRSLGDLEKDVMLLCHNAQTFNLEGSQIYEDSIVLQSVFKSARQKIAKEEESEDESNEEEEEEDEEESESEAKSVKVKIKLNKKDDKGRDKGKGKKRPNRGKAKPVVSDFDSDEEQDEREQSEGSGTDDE

[13] = cytotoxicity in HEK-293T cells, dose response, cytotoxicity control for TCR NF-kB inhibitor project, luminescence, T-cell screen hits (AID 489026); format: functional, cell-based;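 note: cells exposed to compound about 14 hours before the viability readout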
[14] = target: T4, Microphthalmia-associated transcription factor (Homo sapiens, UniProt O75030); test: TRPM1 promoter luciferase signal decrease, dose response, MITF inhibitor project, cell-based, SK-MEL-5, cherry-picked, set 3 (AID 493073); format: functional
T4 sequence (O75030 whole entry): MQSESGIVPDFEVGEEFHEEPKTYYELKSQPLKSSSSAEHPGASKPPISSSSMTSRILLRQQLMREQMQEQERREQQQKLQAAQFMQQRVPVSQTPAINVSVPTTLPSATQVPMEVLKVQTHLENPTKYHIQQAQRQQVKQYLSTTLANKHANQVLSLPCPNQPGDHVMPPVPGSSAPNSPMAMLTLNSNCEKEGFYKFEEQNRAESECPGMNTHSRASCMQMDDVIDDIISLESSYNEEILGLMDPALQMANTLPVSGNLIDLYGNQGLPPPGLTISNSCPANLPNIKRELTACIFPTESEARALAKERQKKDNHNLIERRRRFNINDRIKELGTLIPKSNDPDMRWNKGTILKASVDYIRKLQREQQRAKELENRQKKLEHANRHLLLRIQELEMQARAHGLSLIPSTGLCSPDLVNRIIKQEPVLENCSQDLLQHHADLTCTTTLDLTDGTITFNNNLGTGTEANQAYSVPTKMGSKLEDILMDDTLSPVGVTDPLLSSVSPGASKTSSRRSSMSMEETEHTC

[15] = target: Paired box protein Pax-8 (Homo sapiens, UniProt Q06710); test: inhibitors of PAX8-driven TPO luciferase reporter, dose response, RMG-I cells, cherry-pick (AID 687027); format: functional, cell-based;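 note: luciferase reporter driven by Pax8 target thyroperoxidase promoter measured by SteadyGlo luminescence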
Chain of Paired box protein Pax-8 (Q06710 whole entry): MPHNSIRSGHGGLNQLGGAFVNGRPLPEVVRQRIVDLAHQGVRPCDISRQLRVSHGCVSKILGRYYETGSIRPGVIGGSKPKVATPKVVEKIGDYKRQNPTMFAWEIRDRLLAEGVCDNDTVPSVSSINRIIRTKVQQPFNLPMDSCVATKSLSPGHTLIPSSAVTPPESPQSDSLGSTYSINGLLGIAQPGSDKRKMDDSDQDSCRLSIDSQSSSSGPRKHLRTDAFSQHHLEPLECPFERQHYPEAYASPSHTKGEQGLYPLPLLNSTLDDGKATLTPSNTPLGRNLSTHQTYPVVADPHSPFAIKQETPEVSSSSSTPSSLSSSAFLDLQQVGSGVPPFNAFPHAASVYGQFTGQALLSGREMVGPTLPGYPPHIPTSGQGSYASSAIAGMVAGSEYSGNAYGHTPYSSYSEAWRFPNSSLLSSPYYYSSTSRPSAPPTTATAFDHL

[16] = Vero E6 cell cytotoxicity, dose response, cytotoxicity control for non-replicating M. tuberculosis project, secondary assay (AID 492998); format: functional, VeroE6; settings: Vero C1008
[17] = cells; format: functional
[18] = microbe, parasite or virus in culture; format: functional; settings: Mycobacterium tuberculosis
[19] = target: T5, DNA repair and recombination protein RAD54-like (Homo sapiens, UniProt Q92698); test: inhibitors of human RAD54 branch migration, confirmation, biochemical, fluorescence, cherry-picked samples, dose series (AID 651657); format: functional
T5 sequence (Q92698 whole entry): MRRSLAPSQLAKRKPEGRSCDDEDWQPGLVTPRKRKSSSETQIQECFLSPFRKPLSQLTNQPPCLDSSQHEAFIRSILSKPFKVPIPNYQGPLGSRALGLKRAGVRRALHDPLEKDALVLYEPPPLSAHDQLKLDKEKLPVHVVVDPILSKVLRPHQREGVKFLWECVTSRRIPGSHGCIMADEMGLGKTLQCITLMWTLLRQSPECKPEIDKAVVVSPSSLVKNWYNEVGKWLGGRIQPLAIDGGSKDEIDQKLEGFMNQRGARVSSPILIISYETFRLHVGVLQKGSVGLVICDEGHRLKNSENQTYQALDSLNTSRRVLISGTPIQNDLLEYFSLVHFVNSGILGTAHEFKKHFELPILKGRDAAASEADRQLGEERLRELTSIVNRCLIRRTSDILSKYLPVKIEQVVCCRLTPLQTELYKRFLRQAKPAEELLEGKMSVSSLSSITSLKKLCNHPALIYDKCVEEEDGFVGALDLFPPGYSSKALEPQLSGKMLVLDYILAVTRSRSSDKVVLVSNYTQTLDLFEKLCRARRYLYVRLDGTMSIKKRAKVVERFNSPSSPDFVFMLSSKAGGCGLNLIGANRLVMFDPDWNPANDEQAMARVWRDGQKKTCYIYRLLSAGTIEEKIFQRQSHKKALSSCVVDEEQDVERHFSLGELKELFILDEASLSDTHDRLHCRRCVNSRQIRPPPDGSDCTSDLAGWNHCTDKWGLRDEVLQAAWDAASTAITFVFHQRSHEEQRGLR

[20] = THP-1 cell cytotoxicity, dose response, cytotoxicity control for non-replicating M. tuberculosis project (AID 489025); format: functional
[21] = target: T6, Aryl hydrocarbon receptor (Homo sapiens, UniProt P35869); settings: Potency;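 note: confirmatory quantitative high-throughput screen measuring activation of the AhR signaling pathway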
T6 sequence (P35869 whole entry): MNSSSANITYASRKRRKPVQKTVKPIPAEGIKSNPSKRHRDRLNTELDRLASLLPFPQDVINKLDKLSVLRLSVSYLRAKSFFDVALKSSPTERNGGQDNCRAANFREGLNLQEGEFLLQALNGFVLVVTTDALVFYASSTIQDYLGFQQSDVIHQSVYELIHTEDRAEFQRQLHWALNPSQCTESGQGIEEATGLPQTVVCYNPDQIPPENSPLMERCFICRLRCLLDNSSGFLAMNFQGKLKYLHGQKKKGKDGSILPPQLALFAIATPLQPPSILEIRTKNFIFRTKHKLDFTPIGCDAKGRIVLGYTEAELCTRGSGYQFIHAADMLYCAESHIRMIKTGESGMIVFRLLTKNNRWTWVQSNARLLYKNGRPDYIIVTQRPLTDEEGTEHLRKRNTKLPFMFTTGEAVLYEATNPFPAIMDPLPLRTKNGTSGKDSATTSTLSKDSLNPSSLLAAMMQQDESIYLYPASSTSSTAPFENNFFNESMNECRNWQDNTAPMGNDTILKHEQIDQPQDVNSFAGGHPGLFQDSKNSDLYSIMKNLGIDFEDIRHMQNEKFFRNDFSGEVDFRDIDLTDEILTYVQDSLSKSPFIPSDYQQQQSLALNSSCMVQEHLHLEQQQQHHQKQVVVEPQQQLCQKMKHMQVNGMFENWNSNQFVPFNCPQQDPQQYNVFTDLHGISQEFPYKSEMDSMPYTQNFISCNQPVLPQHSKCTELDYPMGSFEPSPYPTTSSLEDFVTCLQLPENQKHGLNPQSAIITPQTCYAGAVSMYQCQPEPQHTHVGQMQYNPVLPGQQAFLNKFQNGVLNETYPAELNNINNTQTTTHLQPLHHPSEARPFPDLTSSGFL

## NCCCNC(=S)NCCCN(Cc1ccc(Cl)cc1)c1ccc(Br)cn1
[1]
  AC50: 20.2 µM (active)

## Cc1ccccc1NC(=O)CSc1ccsc1[N+](=O)[O-]
[2]
  IC50: 2.3 µM (active)
[3]
  IC50: 7.7 µM (active)

## CCOc1cccc2sc(N(CCN(C)C)C(=O)c3cc4ccccc4cc3OC)nc12
[1]
  AC50: 12.5 µM (active)

## CCOc1ccc(N(CC(=O)Nc2ccccc2OCC)S(=O)(=O)c2c(C)noc2C)cc1
[4]
  IC50: > 67.5 µM (inactive)
[5]
  IC50: > 67500 nM (inactive)
[6]
  EC50: 0.495 µM (active)
[7]
  EC50: 2.32 µM (active)
[8]
  EC50: 0.567 µM (active)

## Cc1cccc(N2C(=O)/C(=C\NNC(=O)c3ccccc3Cl)c3ccccc3C2=O)n1
[9]
  AC50: 9.36 µM (active)
[10]
  IC50: > 94.1 µM (inactive)

## C=C1c2ccccc2NC(=O)N1c1ccc(OC)cc1
[11]
  EC50: > 91.1 µM (inactive)
[12]
  EC50: > 91.1 µM (inactive)

## COc1ccc(COC(=O)c2cc([N+](=O)[O-])ccc2N2CCOCC2)cc1F
[13]
  IC50: > 80 µM (inactive)
[4]
  IC50: > 67.5 µM (inactive)
[5]
  IC50: > 278 nM (active)
[14]
  AC50: 23 nM (active)
[15]
  AC50: < 260 nM (active)

## COCc1cc(O)n2nc(-c3ccc(C)cc3)cc2n1
[11]
  EC50: > 91.2 µM (inactive)
[12]
  EC50: > 91.2 µM (inactive)

## CN(C)CCOc1nc(-c2ccccc2)nc2c1oc1ccccc12
[16]
  CC50: > 20 µM (active)
[11]
  EC50: > 91.2 µM (inactive)
[17]
  IC50: 10.7 µM (active)
[18]
  CC50: 12.5 µM (active)
[12]
  EC50: > 10.1 µM (inactive)
[3]
  IC50: > 99 µM (inactive)
[19]
  AC50: 4.97 µM (active)
[20]
  CC50: 34 µM (active)

## O=C(/C=C\Nc1cccc(F)c1)c1ccc2c(c1)OCO2
[4]
  IC50: > 67.5 µM (inactive)
[5]
  IC50: > 92.6 nM (active)
[6]
  EC50: 7.42 µM (active)
[8]
  EC50: 7.2 µM (active)

## N#Cc1ccccc1 [BENZONITRILE]
[21]
  AC50: 7.08 µM (inconclusive)
